From patent publication US6767741B1, “Metal binding compounds and their use in cell culture medium compositions” (Invitrogen Corporation, priority 1999, dated 2004)

What was measured:
Format in all cases: cell-based
[1] = test system: 293 cells; experiment: Growth of 293 cells in transferrin-free 293 SFM with metal binding compounds; settings: third passage
Procedure: Semi-confluent adherent cultures of 293 Cells (ATCC, CRL 1573) are readily adapted to suspension culture. The cells are first detached with a solution of Trypsin-EDTA (0.05% Trypsin, 0.53 mM Na4EDTA), and then resuspended in conventional medium supplemented with 10% FBS to inhibit the trypsin. The resuspended cells are centrifuged at 200×g for five minutes. The cell pellet is resuspended in 293 SFM (available from Life Technologies, Rockville, Md.) the formulation of which is described in WO 98/08934 which is specifically incorporated herein by reference. Alternatively, the cells may be detached with Versene (Na4EDTA, 0.53 mM) and resuspended in 293 SFM.
The initial seeding density of the 293 cells after conversion to suspension culture is 1×10^6 cells/mL. The cells are shaken on a rotary shaker at 150 rpm in a 37° C. incubator equilibrated with 8% CO2-92% air. When the cells reach a density of 1.5×10^6 cells/mL they are diluted with 293 SFM to a density of 3.0×10^5 cells/mL. Because 293 cells have a tendency to aggregate, the cells may be vortexed vigorously for approximately 45 seconds to obtain a predominantly single cell suspension at the time of passaging and counting. After several passages in suspension culture, the maximum achievable density may be determined.
The ability of metal binding compounds to support cellular growth was evaluated using 293 cells maintained in 293 SFM (Life Technologies, Rockville, Md.) without transferrin or metal binding compound. Stock cultures containing 5 μg/mL human holo-transferrin were prepared in 293 SFM. For metal binding compound evaluation, 293 cells were established in 125 mL shaker flasks at an initial viable seeding density of 2×10^5 cells/mL in a final volume of 20 mL. All cultures were maintained at 37° C. in humidified air containing 8% CO2. To eliminate transferrin carry-over effects, cells were subcultured at 4 day intervals for a total of three passages. At each subculturing, cells were seeded at a density of 2×10^5 cells/mL. Positive control cultures contained 5 μg/mL human holo-transferrin while negative control cultures were established in the absence of either transferrin or metal binding compound. Metal binding compound stocks were prepared at 0.1M-0.2M in ddH2O and solubilized when necessary using 5N NaOH or HCl. Iron complexes were established using 0.2M metal binding compound and iron stocks mixed 1:1 (v/v) and incubated for 5-10 minutes at 22° C. All solutions containing metal binding compounds were filter sterilized using a 0.22 μm Millex-GV filter prior to addition to transferrin and serum-free media.
In most cases, metal binding compounds were evaluated either alone or in combination with ferric chloride or ferrous sulfate at 25 μM, 50 μM and 100 μM. When used in combination, the metal binding compounds were used in equimolar concentration with iron ions. Values in the table represent the mean percentage of control growth for duplicate cultures determined at the third passage.
(§1) When added to the medium formulation un-complexed, the metal binding compound is listed alone, when added as a complex with a transition metal, the source of the transition metal is listed with the metal binding compound.

[2] = test system: CHO cells; experiment: Growth of CHO cells in transferrin-free CD CHO medium with metal binding compounds; settings: third passage, control = 5 μg/mL human holo-transferrin, duplicate cultures
Procedure: The ability of metal binding compounds to support cellular growth in the absence of transferrin was evaluated using CHO cells maintained in CD CHO medium (Life Technologies, Rockville, Md., the formulation of which is described in WO 98/08934). Stock cultures containing 5 μg/mL human holo-transferrin were prepared in CD CHO medium. For metal binding compound evaluation, CHO cells were established in 125 mL shaker flasks at an initial viable seeding density of 1×10^5 cells/mL in a final volume of 20 mL. All cultures were maintained at 37° C. in humidified air containing 8% CO2. To eliminate transferrin carry-over effects, cells were subcultured at 4 day intervals for a total of three passages. Positive control cultures contained 5 μg/mL human holo-transferrin while negative control cultures were established in the absence of either transferrin or metal binding compound. Metal binding compound stocks were prepared at 0.1M-0.2M in ddH2O and solubilized when necessary using 5N NaOH or HCl. Iron complexes were established using 0.2M metal binding compound and iron stocks mixed 1:1 (v/v) and incubated for 5-10 minutes at 22° C. All solutions containing metal binding compounds were filter sterilized using a 0.22 μm Millex-GV filter prior to addition to transferrin and serum-free media.
(§2) In most cases, metal binding compounds were evaluated either alone or in combination with ferric chloride or ferrous sulfate at 25 μM, 50 μM and 100 μM. Values in the table represent the mean percentage of control growth for duplicate cultures determined at the third passage.
as §1, with “The ability of various metal binding compounds to substitute for transferrin in the culture of CHO cells was determined. When” for “When”

[3] = test system: Sp2/0 cells; experiment: Growth of Sp2/0 cells in transferrin-free CD Hybridoma medium with metal binding compounds; settings: third passage
Procedure: The ability of iron metal binding compounds to support cellular growth in the absence of transferrin was evaluated using Sp2/0 cells maintained in CD Hybridoma medium (Life Technologies, Rockville, Md.). Stock cultures containing 5 μg/mL human holo-transferrin were prepared in CD Hybridoma medium. For metal binding compound evaluation, Sp2/0 cells were established at an initial viable cell density of 0.5×10^5 cells/mL in stationary culture using 75 cm^2 tissue culture flasks in a final volume of 20 mL. All cultures were maintained at 37° C. in humidified air containing 8% CO2. To eliminate transferrin carry-over effects, cells were subcultured at the same seeding density at 4 day intervals for a total of three passages. Positive control cultures contained 5 μg/mL human holotransferrin while negative control cultures were established in the absence of either transferrin or metal binding compound. Metal binding compound stocks were prepared at 0.1M-0.2M in ddH2O and solubilized when necessary using 5N NaOH or HCl. Iron complexes were established using 0.2M metal binding compound and iron stocks mixed 1:1 (v/v) and incubated for 5-10 minutes at 22° C. All solutions containing metal binding compounds were filter sterilized using a 0.22 μm Millex-GV filter prior to addition to transferrin and serum-free media.
as §2, §1

[4] = 25 μM, control = 5 μg/mL human holo-transferrin, duplicate cultures
[5] = 50 μM, control = 5 μg/mL human holo-transferrin, duplicate cultures
[6] = 100 μM, control = 5 μg/mL human holo-transferrin, duplicate cultures

SMILES	mean percentage of control growth [1, 4]	mean percentage of control growth [1, 5]	mean percentage of control growth [1, 6]	mean percentage of control growth [3, 4]	mean percentage of control growth [3, 5]	mean percentage of control growth [3, 6]	further results
[Cl][Fe]([Cl])[Cl].c1ccc(-c2ccccn2)nc1 [2,2-Dipyridyl · Ferric Chloride]	51%	96%	0%				
O=C(O)c1cccc(O)c1O.[Cl][Fe]([Cl])[Cl] [2,3-Dihydrobenzoic Acid · Ferric Chloride]							mean percentage of control growth ([2]; 25 μM): 71%; mean percentage of control growth ([2]; 50 μM): 0%; mean percentage of control growth ([2]; 100 μM): 0%
O=C(O)c1cccnc1O.[Cl][Fe]([Cl])[Cl] [2-Hydroxynicotinic Acid · Ferric Chloride]				64%	82%	85%	mean percentage of control growth ([1]; 100 μM (row note: 293 tested at 100, 150, 200 μM; first column)): 0%; mean percentage of control growth ([1]; 150 μM (row note: 293 tested at 100, 150, 200 μM; second column)): 0%; mean percentage of control growth ([1]; 200 μM (row note: 293 tested at 100, 150, 200 μM; third column)): 99%
O=C(O)c1ccccn1.O=S(=O)([O-])[O-].[Fe+2] [2-Pyridinecarboxylic Acid · Ferrous Sulfate]	67%	48%	0%				
Cc1occc(=O)c1O [3-Hydroxy-2-Methyl-4-Pyrone (Maltol), 3-Hydroxy-2-Methyl-4-Pyrone]	0%	28%	81%	0%	0%	0%	
Cc1occc(=O)c1O.[Cl][Fe]([Cl])[Cl] [3-Hydroxy-2-Methyl-4-Pyrone · Ferric Chloride]				60%	71%	75%	
O=[N+]([O-])c1ncccc1O.[Cl][Fe]([Cl])[Cl] [3-Hydroxy-2-Nitropyridine · Ferric Chloride]				52%	62%	72%	
O=S(=O)([O-])[O-].[Fe+2].[O-][n+]1cccc(O)c1 [3-Hydroxypyridine-N-Oxide · Ferrous Sulfate]	104%	58%	0%				
[O-][n+]1cccc(O)c1 [3-Hydroxypyridine-N-Oxide]	4%	4%	4%				
CC(=O)NO.[Cl][Fe]([Cl])[Cl] [Acetohydroxamic Acid · Ferric Chloride]	83%	22%	0%				mean percentage of control growth ([3]; 5 μM, control = holo-transferrin): 40%; mean percentage of control growth ([3]; 10 μM, control = holo-transferrin): 48%; mean percentage of control growth ([3]; 20 μM, control = holo-transferrin): 47%
NC(=O)CC(N)C(=O)O.[Cl][Fe]([Cl])[Cl] (stereo not drawn) [Asparagine · Ferric Chloride]				36%	51%	54%	
O=C(O)CN(CCN(CC(=O)O)CC(=O)O)CCN(CC(=O)O)CC(=O)O.[Cl][Fe]([Cl])[Cl] [Diethylenetriamine Penta-Acetic Acid · Ferric Chloride]	79%	96%	102%				
NC(CCC(=O)O)C(=O)O.[Cl][Fe]([Cl])[Cl] (stereo not drawn) [Glutamic Acid · Ferric Chloride]	102%	68%	83%				
NCC(=O)O.[Cl][Fe]([Cl])[Cl] [Glycine · Ferric Chloride]	81%	71%	72%	34%	61%	56%	
NCCCCC(N)C(=O)O.[Cl][Fe]([Cl])[Cl] (stereo not drawn) [Lysine · Ferric Chloride]							mean percentage of control growth ([2]; 25 μM): 51%; mean percentage of control growth ([2]; 50 μM): 79%; mean percentage of control growth ([2]; 100 μM): 98%
NC(Cn1ccc(=O)c(O)c1)C(=O)O.[Cl][Fe]([Cl])[Cl] (stereo not drawn) [Mimosine · Ferric Chloride]	64%	55%	80%				
C1COCCN1.[Cl][Fe]([Cl])[Cl] [Morpholine · Ferric Chloride]				54%	64%	81%	
OC1C(O)C(O)C(O)C(O)C1O.[Cl][Fe]([Cl])[Cl] (stereo not drawn) [Myo-Inositol · Ferric Chloride]	79%	87%	85%				
CC(=O)N[C@@H](CS)C(=O)O.[Cl][Fe]([Cl])[Cl] [N-Acetyl-Cysteine · Ferric Chloride]	88%	82%	52%				
O=C(O)CN(CC(=O)O)CC(=O)O.O=S(=O)([O-])[O-].[Fe+2] [Nitriloacetic Acid · Ferrous Sulfate]	75%	95%	0%				
O=C(O)CN(CC(=O)O)CC(=O)O [Nitriloacetic Acid]				0%	0%	0%	
O=S(=O)([O-])[O-].OC[C@@H](O)[C@@H](O)[C@H](O)[C@@H](O)CO.[Fe+2] [Sorbitol · Ferrous Sulfate]	58%	69%	83%				
